Measurements: a melting point compilation (Tetko et al.)

melting point | SMILES
189 to 191 °C | CC(=O)Nc1ccc(Br)c(C(=O)O)n1
152 to 154 °C | CC(=O)c1c(C)nc2ccccc2c1N
199 to 201 °C | Cn1cc(C(=O)O)c(-c2ccc3c(c2)OCCCO3)n1
98 to 100 °C | NC(=O)CCOc1ccccc1N
344 to 346 °C | N#Cc1ccc2nc(N)ncc2c1
153 to 155 °C | Cc1ccc(C(=O)N(C)C)cc1O
136 to 138 °C | Cc1ccc(S(=O)(=O)OC2C=CS(=O)(=O)C2)cc1 (configuration not stated)
219 to 221 °C | NC(CC(=O)O)c1cccs1 (configuration not stated)
78 to 80 °C | O=Cc1ccc(OCc2cscn2)cc1
153 to 155 °C | Nc1nc(CN2CCCCC2)cs1
172 to 174 °C | O=C(O)c1cnn(-c2cccc(C(F)(F)F)c2)c1C1CC1
82 to 84 °C | Cc1cccc(-n2nc(-c3ccco3)cc2N)c1
44 to 46 °C | CC1CCCN(c2ccccc2O)C1 (configuration not stated)
103 to 105 °C | Nc1ccccc1C(=O)Nc1ccc(F)cc1Cl
149 to 151 °C | Nc1ccc(Oc2ccc(F)cc2)c2ccncc12
76 to 78 °C | Brc1ccc(NCc2ccccn2)cc1
80 to 82 °C | Cc1cc(C(=O)CCl)c(C)n1CCc1ccccc1
104 to 106 °C | NNC(=O)CC1CCS(=O)(=O)C1 (configuration not stated)
96 to 98 °C | CC(Cl)C(=O)Nc1cccc(Cl)c1Cl (configuration not stated)
138 to 140 °C | Cn1cc(C(=O)NN)c2ccccc21
102 to 104 °C | CCn1cnnc1CNC(=O)OCC(F)(F)F
107 to 109 °C | CC(O)c1c(Cl)nc2sccn12 (configuration not stated)
169 to 171 °C | Cc1ccc(C(=O)O)c(Sc2ccccc2)n1
151 to 153 °C | Nc1nnc(Cc2ccsc2)o1

melting point | SMILES
79 to 81 °C | N#Cc1ccc(C=O)c(F)c1
119 to 121 °C | CCOc1ccc(S(=O)(=O)N(CC)CC)cc1N
109 to 111 °C | CCOc1cc(N2CCC(O)CC2)ccc1[N+](=O)[O-]
101 to 103 °C | CCS(=O)(=O)Nc1ccc(N)cc1C
78 to 80 °C | CCCC1CCc2nc(N)sc2C1 (configuration not stated)
56 to 61 °C | COc1ccc(Cl)cc1CO
107 to 109 °C | O=C1CC(Cc2ccc(F)cc2)C(=O)N1 (configuration not stated)
128 to 130 °C | N#Cc1ccc(C(=O)CC(=O)C(F)(F)F)cc1
129 to 131 °C | N#Cc1cnc2ccc(Cl)cc2c1Cl
147 to 149 °C | COC(=O)C(N)c1cc(C)c(O)c(C)c1 (configuration not stated)
177 to 179 °C | CCC(CC)NC(=O)C(=O)NN
184 to 186 °C | Oc1ccc2[nH]ncc2c1
134 to 136 °C | Fc1ccccc1Cc1nnc(S)o1
66 to 68 °C | Cc1cc([N+](=O)[O-])cc(S(=O)(=O)Cl)c1C
139 to 141 °C | CC(NC(=O)CC1CCCC1)C(=O)O (configuration not stated)
202 to 204 °C | O=C(O)c1csc(-c2cnn(-c3ccccc3)c2)n1
114 to 116 °C | CS(=O)(=O)NC1(C(=O)O)CCCCC1
186 to 188 °C | NNc1ccc(S(=O)(=O)N2CCCCC2)cn1
99 to 101 °C | CC(C)CNS(=O)(=O)c1ccc(C#N)cc1
140 to 142 °C | Nc1nc(-c2ccccc2O)cs1
56 to 58 °C | Cc1cc(Br)ccc1OCc1ccccc1
106 to 108 °C | O=C(O)c1ccccc1S(=O)(=O)N1CCCCC1
229 to 231 °C | COc1ccc(NC(=O)COc2ccccc2C(=O)O)cc1Cl
118 to 120 °C | CC(Cl)C(=O)N1c2ccccc2Sc2ccccc21 (configuration not stated)

melting point | SMILES
89 to 91 °C | COc1ccc(Cl)cc1-n1cc(S(=O)(=O)Cl)cn1
88 to 90 °C | CC1(C)CCC(=CC(=O)O)CC1
74 to 76 °C | N#Cc1cc(Br)cc(S(=O)(=O)Cl)c1
80 to 82 °C | NNc1nc2ccccc2[nH]1
133 to 135 °C | COc1ccccc1OCCC(=O)O
53 to 55 °C | CCCNC(=O)CC#N
168 to 170 °C | O=C(O)c1ccccc1C(=O)c1ccc2c(c1)OCCO2
144 to 146 °C | O=C(NC1CC1)c1cc(Br)c[nH]1
234 to 236 °C | O=C(O)CNC(=O)c1ncccc1O
111 to 113 °C | CC1=C(C(=O)O)C(=O)OC1(C)C
< 17 °C | CC(C)(C)c1ccc(Cn2nccc2N)cc1
204 to 206 °C | O=C1CC(C(=O)O)CC(=O)N1
176 to 178 °C | Cc1nn2c(nc(Cl)c3ccccc32)c1Cl
109 to 111 °C | COCCS(=O)(=O)Cc1cccc(S(=O)(=O)Cl)c1
199 to 203 °C | O=C(O)c1cc(-c2cccc(Cl)c2)nc2nc(N3CCCCC3)sc12
114 to 116 °C | Cn1nnc(C(=O)O)c1C(F)(F)F
159 to 161 °C | Cc1cc(=O)n2c(n1)NCC2
218 to 220 °C | CN(C)S(=O)(=O)c1ccc(N2CCOCC2)c(C(=O)O)c1
94 to 98 °C | O=Cc1ccc(-c2cccc(Cl)c2Cl)o1
166 to 168 °C | Cc1sc2nc(-c3ccccn3)nc(Cl)c2c1-c1ccccc1
122 to 124 °C | Cc1ccc(N(C(=O)CCCl)C2C=CS(=O)(=O)C2)cc1C (configuration not stated)
72 to 74 °C | Nc1ccc(Oc2cccc(F)c2)cc1
96 to 98 °C | Cc1cc(C(=O)CCl)c(C)n1-c1cccc(C(F)(F)F)c1
129 to 131 °C | CN(C)C(=O)Sc1cnc2nccn2c1

melting point | SMILES
99 to 101 °C | CCN(CC)c1ccc(S(=O)(=O)N2CCOCC2)cc1NC(=O)CCl
95 to 99 °C | Nc1cc(-c2ccco2)no1
201 to 203 °C | Cc1nnnn1C(=Cc1ccccc1)C(=O)O
123 to 125 °C | CC(C)(C)OC(=O)N1CCC2(CC1)CC2C(=O)O (configuration not stated)
199 to 201 °C | CCOC(=O)C1=C(C)NC(C)=C(C(=O)O)C1c1cccc([N+](=O)[O-])c1 (configuration not stated)
139 to 141 °C | O=S(=O)(c1ccc2oc(S)nc2c1)N1CCCCC1
184 to 186 °C | NS(=O)(=O)c1cccc(-c2nnco2)c1
296 to 298 °C | N#Cc1ccc2[nH]c(=O)[nH]c2c1
173 to 175 °C | NC(=O)CC(NS(=O)(=O)c1cccc(F)c1)C(=O)O (configuration not stated)
51 to 53 °C | CC(=O)c1cnn(C)c1
170 to 172 °C | Nc1nc2c(OCC(F)(F)F)cccc2s1
166 to 168 °C | Cc1nc(N2CCOCC2)sc1C=O
208 to 210 °C | N#Cc1ccc2nc(Cl)ccc2c1
173 to 175 °C | O=C(O)Cc1csc(-c2ncccn2)n1
184 to 186 °C | CC(C)Sc1ccc([N+](=O)[O-])cc1C(=O)O
112 to 114 °C | CS(=O)(=O)OCCn1cnc2ccsc2c1=O
99 to 101 °C | Nc1nnc(SCc2ccccc2)[nH]1
49 to 51 °C | Nc1nc2c(F)c(F)ccc2s1
135 to 137 °C | O=C(NC1CC1)C(Cl)c1ccc(F)cc1 (configuration not stated)
132 to 134 °C | CC(O)c1c(Cl)nc2ccccn12 (configuration not stated)
259 to 261 °C | O=C(O)c1ccc(-n2cccc2)nc1
32 to 34 °C | Oc1ccccc1SC(F)(F)F
88 to 90 °C | CCCOc1ccc(C(=O)NN)cc1
249 to 251 °C | O=C(O)c1cc(Cl)[nH]c(=O)c1

melting point | SMILES
140 to 142 °C | Cc1noc(C(F)(F)F)c1C(=O)O
227 to 229 °C | CC(C)(C)Cc1nc(-c2ccc(C(=O)O)cc2)no1
185 to 187 °C | Cc1sc2nc(Cn3cnc([N+](=O)[O-])c3)nc(Cl)c2c1C
258 to 260 °C | O=C(O)c1ccc(CN2C(=O)c3ccccc3C2=O)cc1
146 to 148 °C | NS(=O)(=O)c1ccc2c(c1)COC2
205 to 207 °C | CCCC1(CCC)NC(=O)NC1=O
241 to 243 °C | CC(=O)NC(Cc1c[nH]cn1)C(N)=O (configuration not stated)
78 to 80 °C | O=C(O)Cc1ccc(OC(F)F)cc1
138 to 140 °C | NC(=O)c1ccccc1N1CCC(N)C1 (configuration not stated)
30 to 32 °C | O=S(=O)(Cl)CCc1ccccc1
105 to 107 °C | Cc1ccc(CC(=O)O)cc1O
221 to 223 °C | Cc1cc(N)n(-c2nc3ccccc3o2)n1
38 to 40 °C | N#CC1=C(Cl)CCCC1
136 to 139 °C | CC(Cl)C(=O)Nc1ccc(F)c(F)c1F (configuration not stated)
126 to 128 °C | O=c1ccccn1CCBr
157 to 159 °C | O=S(=O)(Nc1nc2ccccc2nc1Cl)c1ccccc1C(F)(F)F
171 to 173 °C | Cc1ccc(-n2cnnn2)cc1N
88 to 90 °C | Cc1cccc(C(=O)N2CCSCC2)c1O
40 to 42 °C | COc1ccc(C=O)cc1OCC(C)C
141 to 143 °C | CC(C)c1cc(C(=O)O)c2ccccc2n1
102 to 104 °C | O=C(NCCc1ccc(F)cc1)C1Cc2ccccc2CN1 (configuration not stated)
129 to 131 °C | Cc1nnc(S)n1C1CCCC(C)C1 (configuration not stated)
163 to 165 °C | NC1CCC(c2nc(-c3ccccc3)n[nH]2)CC1 (configuration not stated)
151 to 153 °C | O=C1NCCNc2ccccc21

melting point | SMILES
248 to 250 °C | O=C1Nc2cc(SCc3ccccc3)ccc2C1=O
45 to 52 °C | CCOC(=O)c1cc([N+](=O)[O-])cnc1C
201 to 203 °C | COC(=O)c1cncnc1O
193 to 195 °C | O=C(O)c1cc(C2CC2)[nH]n1
199 to 201 °C | NC(=O)NCc1ccc([N+](=O)[O-])cc1
117 to 119 °C | O=Cc1cc(Br)c2c(c1)OCO2
96 to 98 °C | Cc1cc(NC(=O)C(Br)C(C)C)no1 (configuration not stated)
192 to 194 °C | O=C(O)c1nc(-n2cnc3ccccc32)ccc1Cl
270 to 272 °C | Cc1cc(=O)n2c([nH]c3ccccc32)c1C#N
181 to 183 °C | CC(=O)NC(Cc1c[nH]c2cc(F)ccc12)C(=O)O (configuration not stated)
163 to 165 °C | C1CNc2nn[nH]c2C1
132 to 134 °C | Cc1nn(Cc2ccc(Cl)cc2)c(C)c1CO
179 to 181 °C | Cc1sc(C(N)=O)cc1N
99 to 101 °C | O=C(O)Cc1ccc(S(=O)(=O)CCO)cc1
215 to 217 °C | Cc1c(C(=O)O)sc2ncn(C)c(=O)c12
254 to 256 °C | O=c1nc2ccccc2c(-c2ccccc2)[nH]1
102 to 104 °C | Nc1ccc(S(=O)(=O)C(F)F)cc1
187 to 189 °C | COc1ccc(C2C(C(=O)O)CC(=O)N2C2CC2)cc1 (configuration not stated)
158 to 160 °C | CC(C)NS(=O)(=O)Cc1ccc(C#N)cc1

SMILES | melting point
COC(=O)C1C2CCC(N2)C1C(=O)OC (configuration not stated) | 77 to 79 °C
Clc1cnc(N2CCNCC2)c(Cl)c1 | 59 to 61 °C
CC(C)C(Br)C(N)=O (configuration not stated) | 131 to 133 °C
